Measurements as given in patent publication US9611223B2, “3-aryl-5-substituted-isoquinolin-1-one compounds and their therapeutic use” (INSTITUTE OF CANCER RESEARCH: ROYAL CANCER HOSPITAL (THE), priority 2013, dated 2017).
Values joined by “and” are separate entries in the source; they are usually repeats but may differ in a detail not shown here. Equal values may be shown once. Read-outs that look alike come from different tables or passages of the source.

Tests used:
TNKS1 = target: T1, TNKS1 (Homo sapiens, UniProt O95271, M1266I); experiment: TNKS1/PARP Biochemical Assay
T1 construct: expresses the active PARP domain of TNKS1 as a polyhistidine tagged protein; made in house; host or cells: E. coli Rosetta2(DE3)
T1 sequence (O95271 1112-1317 M1266I): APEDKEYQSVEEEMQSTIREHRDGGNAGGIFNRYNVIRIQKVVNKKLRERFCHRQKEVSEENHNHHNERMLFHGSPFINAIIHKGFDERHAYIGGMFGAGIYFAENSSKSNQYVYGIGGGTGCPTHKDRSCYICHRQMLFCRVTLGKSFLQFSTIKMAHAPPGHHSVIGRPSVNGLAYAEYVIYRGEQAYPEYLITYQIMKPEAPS
Procedure: TNKS1/PARP Biochemical Assay
Tankyrase activity was assayed using a 96-well format HT Universal Chemiluminescent PARP Assay Kit (Trevigen, Inc, cat. no. 4676-096-K) according to the manufacturer's instructions. In short, tankyrase/PARP activity is quantified by the incorporation of biotinylated nicotinamide adenine dinucleotide (biotin-NAD^+) onto the immobilised pseudo substrate, Histone. The extent of poly(Biotin-ADP)ribosylation (PARylation) in the presence of increasing dose of inhibitor is then quantified by binding of streptavidin conjugated horse radish peroxidase (strep-HRP) followed by chemiluminescent detection.
Prior to assay initiation, inhibitor stocks were prepared in aqueous DMSO (10% (v/v)) from 5 millimolar (mM) stock in 100% DMSO (Sigma Aldrich, cat. no. 265855) as 10× concentrations. For the primary assay (i.e., single dose at 1 micromolar (μM) final concentration) this corresponded to 10 μM in 10% DMSO. For IC50 determination, this corresponded to 100 μM, 30 μM, 10 μM, 3.0 μM, 1.0 μM, 0.30 μM, 0.10 μM and 0 μM in 10% DMSO for final concentrations of 10 μM, 3.0 μM, 1.0 μM, 0.30 μM, 0.10 μM, 0.030 μM, 0.010 μM, and 0 μM with 1% (v/v) final DMSO. The assay was initiated by the addition of 10× inhibitor (5 microliters (μL)) or 10% aqueous DMSO (5 μL) to triplicate wells. Twenty microliters of diluted TNKS1 protein (200 nanomolar (nM) final conc.) in PARP buffer (Trevigen, Inc, cat. no. 4671-096-02) was added to each histone coated well, which was previously hydrated with PARP buffer. Triplicate wells with 1% DMSO/buffer alone (no enzyme) were also added as a measure of assay ‘noise’. Positive control for PARP inhibition included the addition of 4-amino-1,8-naphthalimide (Sigma Aldrich, cat. no A0966) in corresponding doses.
The mixture was incubated for 10 minutes at room temperature and the PARylation reaction initiated by the addition of PARP cocktail (25 μL, Trevigen, Inc) containing biotin-NAD^+ (Trevigen, Inc, cat. no. 4670-500-01), activated DNA (Trevigen, Inc, cat. no. 4671-096-06) and PARP buffer. The reaction was incubated for 1.5 hours (for TNKS1) or 1 hour (for PARP1) at room temperature. The reaction mixture was then removed by aspiration and the wells washed (3×200 μL) with phosphate buffered saline containing Triton X-100 (0.1% (v/v), Sigma Aldrich cat. no. T8787). The wells were then washed (3×200 μL) with phosphate buffered saline and then incubated with strep-HRP (50 μL, Trevigen, Inc, cat. no. 4800-30-06) in strep-diluent (1:500 dilution, Trevigen Inc, cat. no. 4671-096-04) for 1 hour at room temperature. The Strep-HRP mixture was then aspirated and the wells washed (3×200 μL) with phosphate buffered saline containing Triton X-100 (0.1% (v/v)) followed by phosphate buffered saline (3×200 μL) and then incubated with PeroxyGlow™ reagent (100 μL, Trevigen, Inc, cat. nos. 4675-096-01, 4675-096-02, room temperature, mixed 1:1).
The amount of light emitted as a result of the peroxidase-chemiluminescent reagent reaction was in proportion to the extent of poly(Biotin-ADP)ribosylation and was immediately measured with a Victor^2 plate reader (Perkin Elmer, luminescence detection assay, luminescent units described as ‘Counts Per Second’ (CPS)). The data were normalised to the DMSO control after subtraction of ‘noise’ and was expressed as % PARP activity as a function of inhibitor dose. Inhibition was expressed as 100%−(% PARP activity). Dose response curves used to determine IC50 values were Log transformed and analysed by non-linear regression analysis (variable slope) using Prism (GraphPad Software, Inc) and were presented as IC50 with 95% confidence interval to determine relative potency.
Tankyrase1 (pNIC-Bsa4-TNKS1^PARP) expression construct was obtained from the Structural Genomics Consortium (SGC) and expresses the active PARP domain of TNKS1 as a polyhistidine tagged protein. […]

COLO320DM cells = experiment: Tumour Cell Inhibition Assay (COLO320DM cells); format: cell-based; settings: Homo sapiens, COLO 320DM, 120 h, five day exposure
Procedure: Tumour Cell Inhibition in Colorectal Tumour Cells
In order to determine the efficacy of acute dosing of putative TNKS inhibitors, five day exposure cell viability assays were carried out. This included the sparse seeding of cells in a 96-well plate followed by continuous dosing of cells over a five day period.
Appropriate cell lines (HT55, COLO320DM and SW620) were seeded at 500 cells/well in a 96-well plate in MEM (HT55), RPMI (COLO320DM) or DMEM (SW620) supplemented with FBS. After overnight incubation, cells were treated with the appropriate putative TNKS inhibitor in 6 or 10 concentrations ranging from 0 μM to 10 μM at 0.2% final DMSO concentration in appropriate media supplemented with 10% or 0.5% FBS. Dosages were carried out in triplicate. Termination of the assay and measurement of cell viability was achieved by the use of Cell Titre Glo reagent and luminescence measurement on an appropriate plate reader.
Dose response curves used to determine SF50 values were Log transformed and analysed by non-linear regression analysis (variable slope) using Prism (GraphPad Software, Inc).

[1] = read-out: cell inhibitory SF50 (COLO320DM)

| Structure (SMILES) | IC50 (TNKS1) | IC50 (COLO320DM cells; [1]) [nM] | IC50 (COLO320DM cells; replicate, read-out: cell inhibitory SF50 (COLO320DM), replicate) [nM] |
| --- | --- | --- | --- |
| COCc1ccn(Cc2ccc(-c3cc4c(C#N)cccc4c(=O)[nH]3)cc2)n1 [IQ-033] | < 50 nM | < 5000 | – |
| Cc1nnc(N2CCN(Cc3ccc(-c4cc5c(C#N)cccc5c(=O)[nH]4)cc3)CC2)o1 [IQ-020] | < 50 nM | < 5000 | – |
| Cc1nnc(N2CCN(Cc3ccc(-c4cc5c(C#N)cccc5c(=O)[nH]4)cc3)C(C)C2)o1 (centres unmarked) [IQ-040] | < 100 nM | < 5000 | – |
| Cc1nccn1Cc1ccc(-c2cc3c(C#N)cccc3c(=O)[nH]2)cc1 [IQ-013] | < 100 nM and < 50 nM and 18 nM | – | 1120 |
| CC(c1ccc(-c2cc3c(C#N)cccc3c(=O)[nH]2)cn1)n1ccnc1 (centres unmarked) [IQ-034] | < 50 nM | – | – |
| Cc1nnc(N2CCN(Cc3ccc(-c4cc5c(CN)cccc5c(=O)[nH]4)cc3)CC2)o1 [IQ-022] | < 50 nM | – | – |
| Cc1nnc(N2CCN(C(C)c3ccc(-c4cc5c(C#N)cccc5c(=O)[nH]4)cc3)CC2)o1 (centres unmarked) [IQ-032] | < 50 nM | – | – |
| Cc1nnc(N2CCN(Cc3ccc(-c4cc5c(C#N)cc(F)cc5c(=O)[nH]4)cc3)CC2)o1 [IQ-039] | < 50 nM | < 5000 | – |
| CN(C)Cc1nccn1Cc1ccc(-c2cc3c(C#N)cccc3c(=O)[nH]2)cc1 [IQ-016] | < 50 nM | < 5000 | – |
| COCc1ccnn1Cc1ccc(-c2cc3c(C#N)cccc3c(=O)[nH]2)cc1 [IQ-031] | < 100 nM | – | – |
| CC(c1ccc(-c2cc3c(C#N)cccc3c(=O)[nH]2)cc1)N1CC(O)C1 (centres unmarked) [IQ-009, 3-{4-[1-(3-Hydroxy-azetidin-1-yl)-ethyl]-phenyl}-1-oxo-1,2-dihydro-isoquinoline-5-carbonitrile] | < 50 nM | – | – |
| COCCN(CCOC)C(=O)c1ccc(-c2cc3c(C#N)cccc3c(=O)[nH]2)cc1 [IQ-008] | < 100 nM | – | – |
| CN(C)Cc1cccc2c(=O)[nH]c(-c3ccc(CN4CCN(C)CC4)cc3)cc12 [IQ-024, 5-Dimethylaminomethyl-3-[4-(4-methyl-piperazin-1-ylmethyl)-phenyl]-2H-isoquinolin-1-one] | – | < 5000 | – |
| CC(C)c1nnc(N2CCN(Cc3ccc(-c4cc5c(C#N)cccc5c(=O)[nH]4)cc3)CC2)o1 [IQ-019] | < 50 nM | – | – |
| COCc1nccn1Cc1ccc(-c2cc3c(C#N)cccc3c(=O)[nH]2)cc1 [IQ-017] | < 50 nM | – | – |
| CN(C(=O)c1ccc(-c2cc3c(C#N)cccc3c(=O)[nH]2)cc1)C1CCN(CC2CC2)CC1 [IQ-006] | < 50 nM | < 5000 | – |
| COCc1nccn1C(C)c1ccc(-c2cc3c(C#N)cccc3c(=O)[nH]2)cc1 (centres unmarked) [IQ-028] | < 50 nM | < 5000 | – |
| CC(c1ccc(-c2cc3c(C#N)cccc3c(=O)[nH]2)cc1)n1ccnc1CO (centres unmarked) [IQ-038] | < 50 nM | < 5000 | – |
| CC(c1ccc(-c2cc3c(C#N)cccc3c(=O)[nH]2)cc1)n1ccnc1 (centres unmarked) [IQ-029] | < 50 nM | – | – |
| N#Cc1cccc2c(=O)[nH]c(-c3ccc(Cn4ccnn4)cc3)cc12 [IQ-030] | < 50 nM | < 5000 | – |
| COCc1nccn1Cc1ccc(-c2cc3c(CN)cccc3c(=O)[nH]2)cc1 [IQ-023, 5-Aminomethyl-3-[4-(2-methoxymethyl-imidazol-1-ylmethyl)-phenyl]-2H-isoquinolin-1-one] | < 50 nM | – | – |
| N#Cc1cccc2c(=O)[nH]c(-c3ccc(C(=O)N(CCO)CCO)cc3)cc12 [IQ-010, 4-(5-Cyano-1-oxo-1,2-dihydro-isoquinolin-3-yl)-N,N-bis-(2-hydroxy-ethyl)-benzamide] | < 50 nM | – | – |

Results, then the molecule that gave them:

| IC50 (TNKS1) | IC50 (COLO320DM cells; [1]) [nM] | IC50 (COLO320DM cells; replicate, read-out: cell inhibitory SF50 (COLO320DM), replicate) [nM] | Structure (SMILES) |
| --- | --- | --- | --- |
| < 50 nM | – | – | CCc1nnc(N2CCN(Cc3ccc(-c4cc5c(C#N)cccc5c(=O)[nH]4)cc3)CC2)o1 [IQ-044] |
| < 50 nM | < 5000 | – | Cc1nnc(N2CCCN(Cc3ccc(-c4cc5c(C#N)cccc5c(=O)[nH]4)cc3)CC2)o1 [IQ-049] |
| < 50 nM | – | – | Cc1nnc(N2CCN(c3ccc(-c4cc5c(C#N)cccc5c(=O)[nH]4)cc3)CC2)o1 [IQ-055, 3-{4-[4-(5-Methyl-[1,3,4]oxadiazol-2-yl)piperazin-1-yl]phenyl}-1-oxo-1,2-dihydroisoquinoline-5-carbonitrile] |
| – | < 5000 | – | CC(C)(C)OC(=O)N1CCN(Cc2ccc(-c3cc4c(C#N)cccc4c(=O)[nH]3)cc2)CC1 [IQ-046] |
| < 50 nM | < 5000 | – | Cc1nnc(N2CCN(Cc3ccc(-c4cc5c(C#N)cccc5c(=O)[nH]4)cc3)C(C)(C)C2)o1 [IQ-057] |
| < 50 nM | < 5000 | – | Cc1nnc(N2CCCN(c3ccc(-c4cc5c(C#N)cccc5c(=O)[nH]4)cc3)CC2)o1 [IQ-059, 3-{4-[4-(5-Methyl-[1,3,4]oxadiazol-2-yl)-[1,4]diazepan-1-yl]-phenyl}-1-oxo-1,2-dihydro-isoquinoline-5-carbonitrile] |
| < 50 nM | < 5000 | – | Cc1nnc(N2CCN(Cc3ccc(-c4cc5c(C#N)cccc5c(=O)[nH]4)cc3)CC2C)o1 (centres unmarked) [IQ-056] |
| < 50 nM | < 5000 | – | Cc1nnc(N(C)C2CN(Cc3ccc(-c4cc5c(C#N)cccc5c(=O)[nH]4)cc3)C2)o1 [IQ-047] |
| – | < 5000 | – | CC(C)(C)OC(=O)N1CCN(c2ccc(-c3cc4c(C#N)cccc4c(=O)[nH]3)cn2)CC1 [IQ-051] |
| < 50 nM | < 5000 | – | Cc1nnc(N(C)Cc2ccc(-c3cc4c(C#N)cccc4c(=O)[nH]3)cc2)o1 [IQ-042] |
| < 100 nM | – | – | N#Cc1cccc2c(=O)[nH]c(-c3ccc(CN)cc3)cc12 [IQ-043] |
| < 100 nM | – | – | Cc1nnc(N2CCN(Cc3ccc(-c4cc5c(C#N)cccc5c(=O)[nH]4)cc3)CC2(C)C)o1 [IQ-058] |
